Legend:
[1] = Inhibition of lipid peroxidation; type: functional
[2] = Antioxidant activity assessed as copper-chelating scavenging activity; type: functional

IC50 [1] [µM]	IC50 [2] [µM]	SMILES
3.5	3	O=C1CC(c2ccccc2)=NN1c1ccccc1
4.5	9	CC1=NN(c2ccccc2)C(=O)C1 [EDARAVONE]

— ChEMBL document CHEMBL4627355, “Chemical reactivity and uses of 1-phenyl-3-methyl-5-pyrazolone (PMP), also known as edaravone” (Bioorg Med Chem, 2020)
